In US20150150768A1, “Furan Based Composition” (Los Alamos National Security LLC, priority 2013, published 2015):
Read-outs that look alike come from different tables or passages of the source.

Columns and labels:
[1] = Solubility of system at 1 wt % with hardness; type: physicochemical
From the text: Stock solutions of all species were made at 1% by weight in deionized water. […] […] […] Additionally a modified LAS (MLAS) was chosen for comparison.

[2] = Dynamic interfacial tension analysis (dIFT), ascending canola oil drop in aqueous surfactant solution; type: physicochemical; conditions: 200 ppm surfactant, pH 8.3-8.5, canola oil
Description: Method—Dynamic Interfacial Tension Analysis (dIFT) Dynamic Interfacial Tension analysis was performed on a Krüss® DVT30 Drop Volume Tensiometer (Krüss USA, Charlotte, N.C.). The instrument was configured to measure the interfacial tension of an ascending oil drop in the aqueous surfactant solution. The oil used was canola oil (Crisco Pure Canola Oil manufactured by The J.M. Smucker Company). The aqueous surfactant and oil phases were temperature controlled at 21.1° C. (+/−1° C.), via a recirculating water temperature controller attached to the tensiometer. A dynamic interfacial tension curve was generated by dispensing the oil drops into the aqueous surfactant phase from an ascending capillary with an internal diameter of 0.2540 mm, over a range of flow rates and measuring the interfacial tension at each flow rate. Data is generated at oil dispensing flow rates of 500 μL/min to 1 μL/min with 2 flow rates per decade on a logarithmic scale (7 flow rates measured in this instance). Interfacial tension was measured on three oil drops per flow rate and then averaged. Interfacial tension was reported in units of mN/m. Surface age of the oil drops at each flow rate is also recorded and plots can be generated either of interfacial tension (y-axis) versus oil flow rate (x-axis) or interfacial tension (y-axis) versus oil drop surface age (x-axis). […] Example of analysis of a 200 ppm surfactant concentration, with water hardness (3:1 Ca:Mg) of 6 or 20 grains per gallon (gpg) as noted, 21.1° C., pH 8.3-8.5: Sample was analyzed as described above. Density settings for 21.1° C. were set at 0.917 g/ml for Canola Oil and 0.998 g/ml for aqueous surfactant phase (assumed to be the same as water since dilute solution). To a 100 ml volumetric flask was added 2.00 mL of 1% (wt/wt) Surfactant solution in deionized water and the volumetric is then filled to the mark with 6.12 gpg water for target 6 gpg solution or 20.408 gpg water for target 20 gpg solution, (3:1 CaCl2:MgCl2 solution) and mixed well. The solution was transferred to a beaker and the pH adjusted to 8.3-8.5 by addition of a few drops of 0.1 N NaOH or 0.1 N H2SO4. The solution is then loaded into the tensiometer measurement cell and analyzed. Total time from addition of hardness to surfactant to time loaded into tensiometer is 5 minutes. The following surfactants were analyzed via dIFT measurements. Surfactants were analyzed at a level of 200 ppm. Analysis conditions are in water of both 6 and 20 gpg Calcium/Magnesium water hardness level (3:1 calcium:magnesium), 21.1° C. and adjusted to pH 8.3-8.5.

[3] = 1% solution by weight in deionized water
[4] = 1% solution by weight in deionized water, heated to approximately 55° C.
[5] = aliquot of 1% solution diluted to 200 ppm with 6.122 gpg water
[6] = solution hardness 6 gpg (3:1 Calcium:Magnesium)
[7] = solution hardness 20 gpg (3:1 Calcium:Magnesium)

Compound | IFT @ 1 μL/min Oil Flowrate, 21.1° C. [2, 6] | IFT @ 1 μL/min Oil Flowrate, 21.1° C. [2, 7] | Soluble after addition of 6 gpg hardness (for at least 30 minutes) [1] | Soluble after heating to ≈55° C. [1] | Soluble at Room Temperature [1] | Soluble at Room Temperature [1, 3] | Soluble after heating to ≈55° C. [1, 4] | Soluble after addition of 6 gpg hardness (for at least 30 minutes) [1, 5]
CCCCCCCCCCCCc1ccc(S(=O)(=O)[O-])o1.[Na+] [C12 1-furan AFS, sodium 5-dodecanfuran-2-sulfonate] | 0.31 mN/m | 0.25 mN/m |  |  |  |  |  | 
CCCCCCCCCCC(C)c1ccc(S(=O)(=O)O)cc1 (centres unmarked) [C12 2-phenyl LAS, reference compound] |  |  |  |  |  | No | Yes | did not remain soluble and No
sodium 5-dodecanfuran-2-sulfonate [C12 1-furan AFS] |  |  |  |  |  | No | Yes | Yes

Continued, in another order:

IFT @ 1 μL/min Oil Flowrate, 21.1° C. [2, 6] | IFT @ 1 μL/min Oil Flowrate, 21.1° C. [2, 7] | Soluble after addition of 6 gpg hardness (for at least 30 minutes) [1] | Soluble after heating to ≈55° C. [1] | Soluble at Room Temperature [1] | Compound | Soluble at Room Temperature [1, 3] | Soluble after heating to ≈55° C. [1, 4] | Soluble after addition of 6 gpg hardness (for at least 30 minutes) [1, 5]
7.25 mN/m | 4.03 mN/m |  |  |  | CCCCCCCCCC(C)c1ccc(S(=O)(=O)[O-])o1.[Na+] (centres unmarked) [C11 2-furan AFS, sodium 5-(undecan-2-yl)furan-2-sulfonate] | Yes | Yes | Yes
1.15 mN/m | 0.94 mN/m |  |  |  | CCCCCCCCCCC(C)c1ccc(S(=O)(=O)[O-])o1.[Na+] (centres unmarked) [C12 2-furan AFS, sodium 5-(dodecan-2-yl)furan-2-sulfonate] | Yes | Yes | Yes
0.08 mN/m | 0.08 mN/m | Yes | Yes | No | CCCCCCCCCCCCCc1ccc(S(=O)(=O)[O-])o1.[Na+] [C13 1-furan AFS, sodium 5-tridecanfuran-2-sulfonate] |  |  | 
